How the values were obtained:
[1] = target: T1, human KEAP1 (N-term, residues 321-609) (Homo sapiens, UniProt Q14145); assay: KEAP1 Kelch Fluorescence Polarization (FP) Assay; format: binding; details: inhibition of Kelch domain-NRF2 interaction; 2 nM FITC-labelled NRF2 peptide, 25 nM KEAP1, 1 h room temperature; compounds below 10 nM cannot be differentiated
T1 construct: human KEAP1 (N-term, residues 321-609)
Summary of the method: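 Compounds in 12-point curves (top 10 μM) displaced 2 nM FITC-labelled NRF2 peptide from 25 nM KEAP1 residues 321-609 over 1 h at room temperature. Polarization read at 470/530 nm, window set by 50 μM unlabelled peptide; four-parameter fit gave IC50, floor 10 nM.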

[2] = test system: NRF2 mediated gene NAD(P)H:quinone acceptor oxidoreductase 1 (NQO1) in BEAS-2B cells; assay: Beas2B NQO1 mRNA Cell Based Assay; parameters: species or system human; details: Homo sapiens; BEAS-2B cells, compound for 24 h; increase in NQO1 mRNA compared to vehicle (0.1% DMSO) control; read-out: EC50
Method: Beas2B NQO1 mRNA Cell Based Assay
The up regulation of the NRF2 mediated gene NAD(P)H:quinone acceptor oxidoreductase 1 (NQO1) was measured using the following assay method: BEAS-2B cells (ATCC CRL-9609) were plated in 96-well clear plates at 20,000 cells/well in 75 μL of cell culture media and incubated overnight (37° C., 5% CO2). On day 2, 25 μL of compound or controls were added to the cells for 24 h. On day 3, the medium was aspirated from the plate and the Cells-to-CT™ 1-Step TaqMan® Kit (Ambion A25603) was used to perform expression analysis directly from cultured cells without RNA purification according to the manufacturer's instructions.
Briefly, cells were washed with ice cold PBS and 22.5 μL of room-temperature DNase/Lysis solution was added to the cells and incubated at room temperature for 5 minutes. To stop the reaction, 2.25 μL of stop solution was added to the cell lysate. The samples were diluted 1:5 using nuclease free water and 2.5 μL transferred into the PCR plate. Real-time PCR was performed using the C-1000 Thermal Cycler (Bio-Rad) using human beta actin as the internal control. The cDNA was amplified with a specific primer for NQO1 using the 1-step RT-PCR master mix (Ambion Cells-to-CTTM 1-Step TaqMan® Kit A25603). The primers/probes sets that were used for amplification of cDNA were obtained from TaqMan Gene Expression Assays (Applied Biosystems). The comparative CT (ΔΔCT) relative quantification method was used to calculate the relative mRNA level of the target gene NQO1 as described in the Applied Biosystems Chemistry Guide. The data are expressed as an increase in target gene mRNA compared to vehicle (0.1% DMSO) control and the EC50 values were determined by fitting the data to a four parameter logistic fit using XLfit or XE Runner within ActivityBase.

T1 sequence (Q14145 321-609): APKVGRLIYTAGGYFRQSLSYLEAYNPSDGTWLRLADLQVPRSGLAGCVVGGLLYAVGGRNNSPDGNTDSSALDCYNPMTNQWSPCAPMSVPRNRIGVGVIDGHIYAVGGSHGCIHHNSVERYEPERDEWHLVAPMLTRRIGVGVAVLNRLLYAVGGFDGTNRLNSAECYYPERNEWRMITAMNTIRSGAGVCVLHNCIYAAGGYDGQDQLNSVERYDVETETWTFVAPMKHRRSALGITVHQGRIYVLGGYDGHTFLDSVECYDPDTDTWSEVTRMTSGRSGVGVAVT

Row | IC50 [1] [nM] | Compound | EC50 [2] [nM]
1 | 371 | CNC(=O)[C@H]1CCCC[C@H]1C(=O)N1CCc2c(Cl)ccc(OCc3ccc4ncn(C)c4n3)c2[C@H]1CN1CCCC1=O [Example 80, (1S,2R)-2-((S)-5-chloro-8-((3-methyl-3H-imidazo[4,5-b]pyridin-5-yl)methoxy)-1-((2-oxopyrrolidin-1-yl)methyl)-1,2,3,4-tetrahydroisoquinoline-2-carbonyl)-N-methylcyclohexane-1-carboxamide] | 2250
2 | 6.4 | Cn1nnc(COc2ccc(Cl)c3c2[C@@H](CN2CC4(CC4)CC2=O)N(C(=O)[C@@H]2CCCC[C@]2(C)C(N)=O)CC3)c1C(F)F [Example 100, (1S,2R)-2-((S)-5-chloro-8-((5-(difluoromethyl)-1-methyl-1H-1,2,3-triazol-4-yl)methoxy)-1-((6-oxo-5-azaspiro[2.4]heptan-5-yl)methyl)-1,2,3,4-tetrahydroisoquinoline-2-carbonyl)-1-methylcyclohexane-1-carboxamide] | 26
3 | 6.1 | CNC(=O)[C@@]1(C)CCCC[C@H]1C(=O)N1CCc2c(Cl)ccc(OCc3nnn(C)c3C)c2[C@H]1CN1CC2(CC2)CC1=O [Example 101, (1S,2R)-2-((S)-5-chloro-8-((1,5-dimethyl-1H-1,2,3-triazol-4-yl)methoxy)-1-((6-oxo-5-azaspiro[2.4]heptan-5-yl)methyl)-1,2,3,4-tetrahydroisoquinoline-2-carbonyl)-N,1-dimethylcyclohexane-1-carboxamide] | 18
4 | 340 | CNC(=O)[C@H]1CCCC[C@H]1C(=O)N1CCc2c(Cl)ccc(OCc3ccccn3)c2[C@H]1CN1CCCC1=O [Example 63, (1S,2R)-2-((S)-5-chloro-1-((2-oxopyrrolidin-1-yl)methyl)-8-(pyridin-2-ylmethoxy)-1,2,3,4-tetrahydroisoquinoline-2-carbonyl)-N-methylcyclohexane-1-carboxamide] | > 10000
5 | 54 | CNC(=O)[C@H]1CCCC[C@H]1C(=O)N1CCc2c(Br)ccc(OCc3noc(C(C)C)n3)c2[C@H]1CN1CCCC1=O [Example 55, (1S,2R)-2-((S)-5-bromo-8-((5-isopropyl-1,2,4-oxadiazol-3-yl)methoxy)-1-((2-oxopyrrolidin-1-yl)methyl)-1,2,3,4-tetrahydroisoquinoline-2-carbonyl)-N-methylcyclohexane-1-carboxamide] | 330
6 | 11 | CNC(=O)[C@H]1CCCC[C@H]1C(=O)N1CCc2c(Cl)ccc(OCc3nnn(C)c3C(F)F)c2[C@H]1CN1CCCC1=O [Example 58, (1S,2R)-2-((S)-5-chloro-8-((5-(difluoromethyl)-1-methyl-1H-1,2,3-triazol-4-yl)methoxy)-1-((2-oxopyrrolidin-1-yl)methyl)-1,2,3,4-tetrahydroisoquinoline-2-carbonyl)-N-methylcyclohexane-1-carboxamide] | 206
7 | 27 | CNC(=O)[C@H]1CCCC[C@H]1C(=O)N1CCc2c(Cl)ccc(OCc3ccc4c(c3)nnn4C)c2[C@H]1CN1CCCC1=O [Example 72, (1S,2R)-2-((S)-5-chloro-8-((1-methyl-1H-benzo[d][1,2,3]triazol-5-yl)methoxy)-1-((2-oxopyrrolidin-1-yl)methyl)-1,2,3,4-tetrahydroisoquinoline-2-carbonyl)-N-methylcyclohexane-1-carboxamide] | 605

Row | Compound | IC50 [1] [nM] | EC50 [2] [nM]
8 | NC(=O)[C@H]1CCCC[C@H]1C(=O)N1CCc2cccc(OCCCC(=O)N3CCCC3)c2[C@H]1CN1C(=O)c2ccccc2C1=O [Example 1, (1S,2R)-2-((S)-1-((1 ,3-dioxoisoindolin-2-yl)methyl)-8-(4-oxo-4-(pyrrolidin-1-yl)butoxy)-1,2,3,4-tetrahydroisoquinoline-2-carbonyl)cyclohexane-1-carboxamide] | 901 | 2030

Reference: patent US20230159511A1, “TETRAHYDROISOQUINOLINE COMPOUNDS AS NRF2 ACTIVATORS” (C4X Discovery Limited, priority 2020, published 2023)
